The source made the active and inactive calls. The calls are words filed in the database; no cut-off is given here.

The term inhibition denotes the percentage by which the read-out fell short of the control. As usually defined, the IC50 is the midpoint of a concentration-inhibition curve.

The target in assay [1] is T1, Protein smoothened (Homo sapiens, UniProt Q99835). As to the kind of experiment: Antagonist activity at smoothened (unknown origin) expressed in mouse Shh Light2 cells co-expressing Gli-dependent reporter gene assessed as inhibition of Shh signaling at 2 uM by dual luciferase reporter gene assay. The assay is classed as functional, cell-based. Particulars: Shh Light II. (In a reporter assay the amount or activity of a reporter protein is the signal.)

In a further assay the test system is HCT-116. In words: Antiproliferative activity against human HCT116 cells assessed as growth inhibition at 10 uM after 48 hrs by MTT assay. Format: functional, cell-based. For orientation: Tetrazolium dyes change colour on reduction, which living cells bring about.
Assay [2] can be described thus: Inhibition of Hedgehog signaling in mouse NIH/3T3 cells assessed as down regulation of mPTCH1 mRNA expression at 10 uM. The following applies: NIH3T3. Format: cell-based.
The species named for another assay is Danio rerio. In words: Antagonist activity at smoothened in zebrafish embryo assessed as reduction in Gli-dependent RFP expression compound treated at 20 to 80 uM at 2 hrs post fertilization measured 36 hrs post fertilization.
In another assay the test system is SW1353. In words: Antiproliferative activity against human SW1353 cells assessed as growth inhibition at 10 uM after 48 hrs by MTT assay. Format: functional, cell-based.
A further assay relates to Daoy. As to the kind of experiment: Antiproliferative activity against human DaOY cells assessed as growth inhibition at 10 uM after 48 hrs by MTT assay. The assay is classed as functional, cell-based.
A short description of assay [3]: Inhibition of hedgehog signaling in mouse MSC cells assessed as down regulation of alkaline phosphatase at 20 to 80 uM. Format: cell-based.
The next assay concerns A549. As to the kind of experiment: Antiproliferative activity against human A549 cells assessed as growth inhibition at 10 uM after 48 hrs by MTT assay. The assay is classed as functional, cell-based.
For assay [4], the target named is T1, Protein smoothened. As to the kind of experiment: Antagonist activity at smoothened (unknown origin) expressed in mouse Shh Light2 cells co-expressing Gli-dependent reporter gene assessed as inhibition of Shh signaling at 0.5 uM by dual luciferase reporter gene assay. Particulars: Shh Light II. The assay is classed as functional, cell-based.
Assay [5] concerns the target T1, Protein smoothened. In words: Antagonist activity at smoothened (unknown origin) expressed in mouse Shh Light2 cells co-expressing Gli-dependent reporter gene assessed as inhibition of Hh signaling by dual luciferase reporter gene assay. Format: functional, cell-based, Shh Light II.
Assay [6] concerns the target T1, Protein smoothened. In words: Displacement of BODIPY-cyclopamine from human SMO cyclopamine-binding site expressed in HEK293 cells at 10 to 100 nM after 4 hrs by Hoechst 33342 staining-based assay. Format: cell-based.
The target of assay [7] is T1, Protein smoothened. In words: Displacement of BODIPY-cyclopamine from human SMO cyclopamine-binding site expressed in HEK293 cells at 50 to 200 nM after 4 hrs by Hoechst 33342 staining-based assay. Format: cell-based.

T1 sequence (Q99835 whole entry): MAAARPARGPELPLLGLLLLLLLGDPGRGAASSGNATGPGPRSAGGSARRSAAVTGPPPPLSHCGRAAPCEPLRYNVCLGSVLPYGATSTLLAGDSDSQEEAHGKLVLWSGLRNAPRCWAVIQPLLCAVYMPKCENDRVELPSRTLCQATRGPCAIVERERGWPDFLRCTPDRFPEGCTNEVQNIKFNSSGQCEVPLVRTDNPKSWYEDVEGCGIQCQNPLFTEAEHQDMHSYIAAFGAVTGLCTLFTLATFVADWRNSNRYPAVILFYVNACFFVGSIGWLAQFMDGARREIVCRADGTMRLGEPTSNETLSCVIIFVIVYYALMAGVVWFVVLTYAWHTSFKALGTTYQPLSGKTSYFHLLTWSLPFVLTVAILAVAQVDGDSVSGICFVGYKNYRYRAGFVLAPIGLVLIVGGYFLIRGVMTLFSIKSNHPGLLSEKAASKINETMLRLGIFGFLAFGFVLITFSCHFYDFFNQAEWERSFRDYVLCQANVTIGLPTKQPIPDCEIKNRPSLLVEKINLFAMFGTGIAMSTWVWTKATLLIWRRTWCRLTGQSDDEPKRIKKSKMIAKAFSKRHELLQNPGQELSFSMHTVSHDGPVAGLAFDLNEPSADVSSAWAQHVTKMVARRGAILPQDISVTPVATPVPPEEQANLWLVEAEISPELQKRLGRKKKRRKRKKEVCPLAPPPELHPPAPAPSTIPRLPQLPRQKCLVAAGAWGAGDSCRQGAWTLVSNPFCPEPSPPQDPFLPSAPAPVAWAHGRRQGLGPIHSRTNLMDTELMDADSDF

As to `CS(=O)(=O)c1ccc(C(=O)Nc2ccc(Cl)c(NC(=O)c3ccc(Cl)cn3)c2)c(Cl)c1`, the inhibition on Protein smoothened [1] stood at 30.5%.
As for `COc1ccc(NC(=O)c2cc(NC(=O)c3ccc(S(C)(=O)=O)cc3Cl)ccc2Cl)cc1`, the inhibition on Protein smoothened [1] is 69.8%.
As for `CS(=O)(=O)c1ccc(C(=O)Nc2ccc(Cl)c(C(=O)Nc3cc(Cl)cc(Cl)c3)c2)c(Cl)c1`, the inhibition at Protein smoothened [1] stood at 46.6%.
Take `CS(=O)(=O)c1ccc(C(=O)Nc2ccc(Cl)c(-c3ccccn3)c2)c(Cl)c1`: the “growth inhibition (GI)” value with HCT-116, in the assay with SW1353, with Daoy and in the assay on A549 was “Active” each time. For the same compound, the inhibition entry (in assay [2]; in the assay listed under Danio rerio; in assay [3]) was “Active” in each case.
As to `COc1ccc(NC(=O)Nc2cc(NC(=O)c3ccc(S(C)(=O)=O)cc3Cl)ccc2Cl)cc1`, the inhibition at Protein smoothened [1] was 73.8%. Also, at Protein smoothened [4], the inhibition entry is “inactive”.
`CS(=O)(=O)c1ccc(C(=O)Nc2ccc(Cl)c(C(=O)Nc3cccc(O)c3)c2)c(Cl)c1`: at Protein smoothened [5], the IC50 is 40 nM. For the same compound, the inhibition on Protein smoothened [1] came to 72.2%. The “growth inhibition (GI)” value in the assay with HCT-116, in the assay on SW1353, in the assay on Daoy and with A549 was “Active” in each case. The inhibition result (in assay [2]; in the assay listed under Danio rerio; in assay [3]) was “Active” in each case. On Protein smoothened [6], the result was Active.
As for `Cc1cccc(NC(=O)c2cc(NC(=O)c3ccc(S(C)(=O)=O)cc3Cl)ccc2Cl)c1C`, at Protein smoothened [5], the IC50 was 100 nM. For the same compound, on Protein smoothened [1], the inhibition turned out to be 76.3%. Moreover, on Protein smoothened [7], the outcome was Active.
For `CS(=O)(=O)c1ccc(C(=O)Nc2ccc(Cl)c(C(=O)Nc3ccc(Cl)cc3Cl)c2)c(Cl)c1`, on Protein smoothened [1], the inhibition worked out at 0%.
Take `CS(=O)(=O)c1ccc(C(=O)Nc2ccc(Cl)c(C(=O)Nc3cccnc3)c2)c(Cl)c1`: at Protein smoothened [1], the inhibition is 72.9%.
Still for that read-out and setting: the value for `CS(=O)(=O)c1ccc(C(=O)Nc2ccc(Cl)c(NC(=O)c3ccc(Cl)s3)c2)c(Cl)c1` was 51.4%.
Regarding `CS(=O)(=O)c1ccc(C(=O)Nc2ccc(Cl)c(NC(=O)c3cccc(C(F)(F)F)c3)c2)c(Cl)c1`, the inhibition on Protein smoothened [1] was 28.4%.
Same read-out and setting: the value for `CCc1ccccc1NC(=O)c1cc(NC(=O)c2ccc(S(C)(=O)=O)cc2Cl)ccc1Cl` was 65.9%.
`CS(=O)(=O)c1ccc(C(=O)Nc2ccc(Cl)c(NC(=O)Nc3ccc(Cl)cc3)c2)c(Cl)c1`: the inhibition at Protein smoothened [1] is 0%. Also, the inhibition result on Protein smoothened [4] was “inactive”.
`Cc1cc(C)cc(NC(=O)c2cc(NC(=O)c3ccc(S(C)(=O)=O)cc3Cl)ccc2Cl)c1`: the inhibition at Protein smoothened [1] is 56.8%.
As to `CCOc1ccc(NC(=O)c2cc(NC(=O)c3ccc(S(C)(=O)=O)cc3Cl)ccc2Cl)cc1`, the inhibition on Protein smoothened [1] worked out at 70.4%.
Consider `Cc1ccc(NC(=O)c2cc(NC(=O)c3ccc(S(C)(=O)=O)cc3Cl)ccc2Cl)cc1`, for which the inhibition on Protein smoothened [1] worked out at 67.5%.
As to `Cc1ccccc1NC(=O)c1cc(NC(=O)c2ccc(S(C)(=O)=O)cc2Cl)ccc1Cl`, at Protein smoothened [1], the inhibition is 73%.
For `COc1cc(OC)cc(C(=O)Nc2cc(NC(=O)c3ccc(S(C)(=O)=O)cc3Cl)ccc2Cl)c1`, at Protein smoothened [1], the inhibition was determined as 3.6%.
On to `CS(=O)(=O)c1ccc(C(=O)Nc2ccc(Cl)c(NC(=O)c3ccccn3)c2)c(Cl)c1`, for which the inhibition on Protein smoothened [1] was 53.2%.
As for `CS(=O)(=O)c1ccc(C(=O)Nc2ccc(Cl)c(NC(=O)Nc3ccc(Br)cc3F)c2)c(Cl)c1`, at Protein smoothened [1], the inhibition was 55.4%. Further, the inhibition entry on Protein smoothened [4] was “inactive”.
For the compound `CCOc1ccc(NC(=O)Nc2cc(NC(=O)c3ccc(S(C)(=O)=O)cc3Cl)ccc2Cl)cc1`, the inhibition at Protein smoothened [1] came to 66.1%. Also, the inhibition result on Protein smoothened [4] is “inactive”.
As to `CS(=O)(=O)c1ccc(C(=O)Nc2ccc(Cl)c(NC(=O)Nc3ccc(C(F)(F)F)cc3Cl)c2)c(Cl)c1`, the IC50 at Protein smoothened [5] amounted to 300 nM.

The values are drawn from ChEMBL document CHEMBL3124810, “Synthesis and biological evaluation of novel benzamide derivatives as potent smoothened antagonists” (Bioorg Med Chem Lett, 2014).
